PubChem BioAssay AID1963858 (Molecular Pharmacology Branch, DTP, NCI, 2024)

System: HOP-62 multicell spheroids with HUVEC/MSC, viability
Assay: Anticancer human tumor HOP-62 cell line growth inhibition [KRAS2];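 also: viability read after a week of compound exposure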;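 as to viability, T/C: 100% = DMSO vehicle-treated spheroids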
Conditions: for IC50: curve of first compound; for viability, T/C: stronger effect = lower value
Excerpt: Multicellular complex tumor spheroid response to RAS pathway inhibitors in combination with a targeted agents in patient-derived cell lines with oncogenic KRAS variants from multiple cancer types
A high-throughput screen of multi-cell type tumor spheroids was designed to identify active combinations of targeted small molecules and KRAS pathway inhibitors. Complex spheroids include a stromal component modeled by human endothelial cells (HUVEC) and fibroblasts modeled by human mesenchymal stem cells (MSCs). The concentration ranges selected for each drug and investigational agent were based upon clinically achievable concentrations if the clinical Cmax of the agent was known.
Compounds. The drugs and investigational agents: BI-3406 (NSC825286), BAY-293 (NSC824723), batoprotafib (TNO155; NSC825523), sotorasib (AMG 510; NSC818433), MRTX1257 (NSC819558), elimusertib (BAY 1895344; NSC800525), molibresib (GSK525762; NSC774829), temuterkib (LY3214996; NSC803410), venetoclax (NSC766270), alisertib (NSC759677), olaparib (NSC753686), talazoparib (NSC767125), erdafitinib (NSC781556), ipatasertib (NSC767898), cabozantinib (NSC761068), nintedanib (NSC756659), abemaciclib (NSC768073), docetaxel (NSC628503), trametinib (NSC758246), and sapanisertib (NSC764658) were obtained from the National Cancer Institute (NCI) Developmental Therapeutics Program Chemical Repository. The FDA-approved anticancer drug set is available from the Developmental Therapeutics Program. […] The stock solutions were prepared in dimethyl sulfoxide (DMSO, Sigma-Aldrich, St. Louis, MO, cat. D2650) at 800-fold the tested concentration and stored at -70 degrees C prior to their use. All drugs and investigational agents were tested over a range starting from a high concentration at or near the clinical Cmax and decreasing in half-log increments. If the clinical Cmax for an agent had not been determined, the highest concentration tested was 10 microM.
Cell Culture. All cells were maintained in an incubator at 37 degrees C and 5% CO2 with 95% humidity. The PDC lines were cultured according to standard operating procedures established by the NCI PDMR (https://pdmr.cancer.gov/sops/default.htm). Briefly, all PDCs were thawed and cultured in Matrigel-coated flasks prepared with a working solution of 1X Ham's F-12 nutrient mix, without supplementation (Invitrogen, Waltham, MA, cat. 11765054), 100 U/mL penicillin-streptomycin (Invitrogen, cat. 15140122), and 2.5% Matrigel (Corning Inc., Corning, NY, cat. 354248) for the first three passages. All PDCs were cultured in complete DMEM/F-12 media containing advanced DMEM/F-12 (Invitrogen, cat. 12634028), 4.9% defined fetal bovine serum, heat inactivated (HyClone Laboratories Inc., Logan, UT, cat. SH30070.03HI), 389 ng/mL hydrocortisone (Sigma-Aldrich, cat. H4001), 9.7 ng/mL human EGF recombinant protein (Invitrogen, cat. PHG0313), 23.4 microg/mL adenine (Sigma-Aldrich, cat. A2786), 97.3 U/mL penicillin-streptomycin (Invitrogen, cat. 15140122), 1.9 mM L-glutamine (Invitrogen, cat. 25030081), and 9.7 microM Y-27632 dihydrochloride (Tocris Bioscience, Bristol, United Kingdom, cat. 1254). The PDCs were cultured in complete DMEM/F12 media without 9.7 microM Y-27632 dihydrochloride for at least two passages prior to the screen. The established cell line HOP-62 was cultured in RPMI 1640 medium, HEPES (Invitrogen, cat. 22400105) with 10% defined fetal bovine serum (HyClone Laboratories Inc., cat. SH30070.03) and 2 mM L-glutamine (Invitrogen, cat. 25030081). The pooled donor HUVEC were cultured in endothelial cell growth medium 2 (PromoCell, Heidelberg, Germany, cat. C-22011) and the hMSC were cultured in mesenchymal stem cell growth medium 2 (PromoCell, cat. C-28009). For all experiments, HUVEC and hMSC were used at passages </=5, while the malignant cell lines were used at passages </=15. […]

[1] = second compound 0.1 µM, first compound 0.0316 µM
[2] = second compound 0.1 µM, first compound 0.1 µM
[3] = second compound 0.316 µM, first compound 0.0316 µM
[4] = second compound 0.316 µM, first compound 0.1 µM
[5] = second compound 1 µM, first compound 0.0316 µM
[6] = second compound 1 µM, first compound 0.1 µM
[7] = second compound 3.16 µM, first compound 0.0316 µM
[8] = second compound 3.16 µM, first compound 0.1 µM
[9] = second compound 10 µM, first compound 0.0316 µM
[10] = second compound 10 µM, first compound 0.1 µM

Work on CC1(C)CCC(CN2CCN(c3ccc(C(=O)NS(=O)(=O)c4ccc(NCC5CCOCC5)c([N+](=O)[O-])c4)c(Oc4cnc5[nH]ccc5c4)c3)CC2)=C(c2ccc(Cl)cc2)C1 + C=CC(=O)N1CCN(c2nc(=O)n(-c3c(C)ccnc3C(C)C)c3nc(-c4c(O)cccc4F)c(F)cc23)C(C)C1 yielded an IC50 (second compound 0.1 µM) of under 0.0316 µM, an IC50 (second compound 0.316 µM) of 2.16 µM and an IC50 (second compound 1 µM) of 2.01 µM. It also gave an IC50 (second compound 3.16 µM) of 3.67 µM, an IC50 (second compound 10 µM) of under 0.0316 µM and a viability, T/C [1] of 46.2%. The viability, T/C [2] was 49.4%, the viability, T/C (second compound 0.1 µM, first compound 0.316 µM) was 50.5% and the viability, T/C (second compound 0.1 µM, first compound 1 µM) was 43.1%. The viability, T/C (second compound 0.1 µM, first compound 3.16 µM) was 39.1%, the viability, T/C (second compound 0.1 µM, first compound 10 µM) was 12.1% and the viability, T/C [3] was 53.4%. The viability, T/C [4] was 51.9%, the viability, T/C (second compound 0.316 µM, first compound 0.316 µM) was 57.7% and the viability, T/C (second compound 0.316 µM, first compound 1 µM) was 56.2%. The viability, T/C (second compound 0.316 µM, first compound 3.16 µM) was 47.1%, the viability, T/C (second compound 0.316 µM, first compound 10 µM) was 20.5% and the viability, T/C [5] was 55%. It also gave a viability, T/C [6] of 57.1%, a viability, T/C (second compound 1 µM, first compound 0.316 µM) of 50.8% and a viability, T/C (second compound 1 µM, first compound 1 µM) of 52.6%. The viability, T/C (second compound 1 µM, first compound 3.16 µM) was 48%, the viability, T/C (second compound 1 µM, first compound 10 µM) was 13% and the viability, T/C [7] was 64.9%. The viability, T/C [8] was 58.9%, the viability, T/C (second compound 3.16 µM, first compound 0.316 µM) was 48.7% and the viability, T/C (second compound 3.16 µM, first compound 1 µM) was 54.4%. For the same compound, the viability, T/C (second compound 3.16 µM, first compound 3.16 µM) was 55.7%, the viability, T/C (second compound 3.16 µM, first compound 10 µM) was 12.2% and the viability, T/C [9] was 43.7%. It also gave a viability, T/C [10] of 46.5%, a viability, T/C (second compound 10 µM, first compound 0.316 µM) of 41.4% and a viability, T/C (second compound 10 µM, first compound 1 µM) of 41.5%. The viability, T/C (second compound 10 µM, first compound 3.16 µM) was 32% and the viability, T/C (second compound 10 µM, first compound 10 µM) was 16.2%.

Work on Cn1ncnc1[C@H]1c2n[nH]c(=O)c3cc(F)cc(c23)N[C@@H]1c1ccc(F)cc1 + C=CC(=O)N1CCN(c2nc(=O)n(-c3c(C)ccnc3C(C)C)c3nc(-c4c(O)cccc4F)c(F)cc23)C(C)C1 yielded an IC50 (second compound 0.1 µM) of 0.0233 µM, an IC50 (second compound 0.316 µM) of 0.0135 µM and an IC50 (second compound 1 µM) of over 0.1 µM. It also gave an IC50 (second compound 3.16 µM) of over 0.1 µM, an IC50 (second compound 10 µM) of under 0.000316 µM and a viability, T/C (second compound 0.1 µM, first compound 0.000316 µM) of 64.7%. It also gave a viability, T/C (second compound 0.1 µM, first compound 0.001 µM) of 68.3%, a viability, T/C (second compound 0.1 µM, first compound 0.00316 µM) of 51.5% and a viability, T/C (second compound 0.1 µM, first compound 0.01 µM) of 58.3%. The viability, T/C [1] was 46.8%, the viability, T/C [2] was 43.5% and the viability, T/C (second compound 0.316 µM, first compound 0.000316 µM) was 68.5%. It also gave a viability, T/C (second compound 0.316 µM, first compound 0.001 µM) of 69.2%, a viability, T/C (second compound 0.316 µM, first compound 0.00316 µM) of 53% and a viability, T/C (second compound 0.316 µM, first compound 0.01 µM) of 56.1%. For the same compound, the viability, T/C [3] was 41.5%, the viability, T/C [4] was 41.5% and the viability, T/C (second compound 1 µM, first compound 0.000316 µM) was 61.9%. The viability, T/C (second compound 1 µM, first compound 0.001 µM) was 63.8%, the viability, T/C (second compound 1 µM, first compound 0.00316 µM) was 63% and the viability, T/C (second compound 1 µM, first compound 0.01 µM) was 54.4%. The viability, T/C [5] was 61%, the viability, T/C [6] was 59.4% and the viability, T/C (second compound 3.16 µM, first compound 0.000316 µM) was 66.6%. For the same compound, the viability, T/C (second compound 3.16 µM, first compound 0.001 µM) was 64.3%, the viability, T/C (second compound 3.16 µM, first compound 0.00316 µM) was 57% and the viability, T/C (second compound 3.16 µM, first compound 0.01 µM) was 66.9%. The viability, T/C [7] was 52.9%, the viability, T/C [8] was 49% and the viability, T/C (second compound 10 µM, first compound 0.000316 µM) was 40.1%. For the same compound, the viability, T/C (second compound 10 µM, first compound 0.001 µM) was 46.6%, the viability, T/C (second compound 10 µM, first compound 0.00316 µM) was 42.9% and the viability, T/C (second compound 10 µM, first compound 0.01 µM) was 36.4%. It also gave a viability, T/C [9] of 38% and a viability, T/C [10] of 33.9%.
